Literature values, collected in publication PMC11675001, “Monovalent and Divalent Designs of Copper Radiotheranostics Targeting Fibroblast Activation Protein in Cancer” (Cancers, 2024).

Experiments:
[1] = ref European Journal of Nuclear Medicine and Molecular Imaging (2022): 1-11 [3]; Pharmaceuticals 16, no. 8 (2023): 1138 [4]
[2] = after 3 h; ref European Journal of Nuclear Medicine and Molecular Imaging (2022): 1-11 [3]; Pharmaceuticals 16, no. 8 (2023): 1138 [4]

- Partition coefficient (LogP) [1]: −3.57
- Stability [2]: > 95.3%
SMILES: CN(CCCN1CCN(C(=O)CN2CCN(CC(=O)[O-])CCN(CC(=O)[O-])CCN(CC(=O)[O-])CC2)CC1)c1ccc2nccc(C(=O)NCC(=O)N3CC(F)(F)C[C@H]3C#N)c2c1.[68Ga+3] [[68Ga]Ga-FAPI-46]
